Assays:
Format in all cases: functional
HL-60(TB) = experiment: Cytotoxicity against human HL-60(TB) cells by sulforhodamine B assay
K562 = experiment: Cytotoxicity against human K562 cells by sulforhodamine B assay
SR = experiment: Cytotoxicity against human SR cells by sulforhodamine B assay
NCI-H226 = experiment: Cytotoxicity against human NCI-H226 cells by sulforhodamine B assay
NCI-H460 = experiment: Cytotoxicity against human NCI-H460 cells by sulforhodamine B assay
NCI-H522 = experiment: Cytotoxicity against human NCI-H522 cells by sulforhodamine B assay
COLO 205 = experiment: Cytotoxicity against human COLO205 cells by sulforhodamine B assay
HCC 2998 = experiment: Cytotoxicity against human HCC2998 cells by sulforhodamine B assay
SF-295 = experiment: Cytotoxicity against human SF295 cells by sulforhodamine B assay
LOX IMVI = experiment: Cytotoxicity against human LOXIMVI cells by sulforhodamine B assay
SK-MEL-2 = experiment: Cytotoxicity against human SK-MEL-2 cells by sulforhodamine B assay
UACC-257 = experiment: Cytotoxicity against human UACC257 cells by sulforhodamine B assay
OVCAR-3 = experiment: Cytotoxicity against human OVCAR-3 cells by sulforhodamine B assay
SK-OV-3 = experiment: Cytotoxicity against human SKOV3 cells by sulforhodamine B assay
786-0 = experiment: Cytotoxicity against human 786-0 cells by sulforhodamine B assay
ACHN = experiment: Cytotoxicity against human ACHN cells by sulforhodamine B assay
CAKI-1 = experiment: Cytotoxicity against human Caki1 cells by sulforhodamine B assay
UO-31 = experiment: Cytotoxicity against human UO31 cells by sulforhodamine B assay
PC-3 = experiment: Cytotoxicity against human PC3 cells by sulforhodamine B assay
DU-145 = experiment: Cytotoxicity against human DU145 cells by sulforhodamine B assay
MCF7 = experiment: Cytotoxicity against human MCF7 cells by sulforhodamine B assay
MDA-MB-231 = experiment: Cytotoxicity against human MDA-MB-231 cells by sulforhodamine B assay
MDA-MB-435 = experiment: Cytotoxicity against human MDA-MB-435 cells by sulforhodamine B assay
HT-29 [1] = experiment: Antitumor activity against human HT-29 cells assessed as upregulation of RASSF4 mRNA expression at 2 nM after 3 hrs relative to control
HT-29 [2] = experiment: Antitumor activity against human HT-29 cells assessed as upregulation of RASSF4 mRNA expression at 2 nM after 6 hrs relative to control
HT-29 [3] = experiment: Antitumor activity against human HT-29 cells assessed as upregulation of DDIT4 mRNA expression at 2 nM after 3 hrs relative to control
HT-29 [4] = experiment: Antitumor activity against human HT-29 cells assessed as upregulation of DDIT4 mRNA expression at 10 nM after 12 hrs relative to control
HT-29 [5] = experiment: Antitumor activity against human HT-29 cells assessed as upregulation of HSPA1A mRNA expression at 2 nM after 3 hrs relative to control
HT-29 [6] = experiment: Antitumor activity against human HT-29 cells assessed as upregulation of HSPA1A mRNA expression at 10 nM after 3 hrs relative to control
HT-29 [7] = experiment: Antitumor activity against human HT-29 cells assessed as upregulation of HSPA1A mRNA expression at 10 nM after 6 hrs relative to control
HT-29 [8] = experiment: Antitumor activity against human HT-29 cells assessed as down-regulation of RAB11B mRNA expression at 10 nM after 3 hrs relative to control
HT-29 [9] = experiment: Antitumor activity against human HT-29 cells assessed as down-regulation of TAL1 mRNA expression at 10 nM after 3 hrs relative to control
HT-29 [10] = experiment: Antitumor activity against human HT-29 cells assessed as down-regulation of TAL1 mRNA expression at 2 nM after 6 hrs relative to control
HT-29 [11] = experiment: Antitumor activity against human HT-29 cells assessed as down-regulation of TAL1 mRNA expression at 10 nM after 12 hrs relative to control
HT-29 [12] = experiment: Antitumor activity against human HT-29 cells assessed as down-regulation of CDC25A mRNA expression at 2 nM after 3 hrs relative to control
HT-29 [13] = experiment: Antitumor activity against human HT-29 cells assessed as down-regulation of CDC25A mRNA expression at 10 nM after 3 hrs relative to control
HT-29 [14] = experiment: Antitumor activity against human HT-29 cells assessed as down-regulation of CDC25A mRNA expression at 10 nM after 6 hrs relative to control
HT-29 [15] = experiment: Antitumor activity against human HT-29 cells assessed as down-regulation of CCNE2 mRNA expression at 2 nM after 3 hrs relative to control
HT-29 [16] = experiment: Antitumor activity against human HT-29 cells assessed as down-regulation of CCNE2 mRNA expression at 2 nM after 6 hrs relative to control
HT-29 [17] = experiment: Antitumor activity against human HT-29 cells assessed as down-regulation of CCNE2 mRNA expression at 2 nM after 12 hrs relative to control
HT-29 [18] = experiment: Antitumor activity against human HT-29 cells assessed as down-regulation of GTSE1 mRNA expression at 10 nM after 6 hrs relative to control
HT-29 [19] = experiment: Antitumor activity against human HT-29 cells assessed as down-regulation of GTSE1 mRNA expression at 10 nM after 12 hrs relative to control
HT-29 [20] = experiment: Antitumor activity against human HT-29 cells assessed as upregulation of KCNK10 mRNA expression at 2 nM after 3 hrs relative to control
HT-29 [21] = experiment: Antitumor activity against human HT-29 cells assessed as upregulation of KCNK10 mRNA expression at 10 nM after 12 hrs relative to control
HT-29 [22] = experiment: Antitumor activity against human HT-29 cells assessed as upregulation of MGC4504 mRNA expression at 2 nM after 3 hrs relative to control
HT-29 [23] = experiment: Antitumor activity against human HT-29 cells assessed as upregulation of MGC4504 mRNA expression at 2 nM after 12 hrs relative to control
U2OS [24] = experiment: Cell cycle arrest in human U2OS cells assessed as accumulation at G1 phase at 50 nM after 24 hrs by FACS analysis (reference value: 49.8%)
U2OS [25] = experiment: Cell cycle arrest in human U2OS cells assessed as accumulation at S phase at 5 nM after 24 hrs by FACS analysis (reference value: 37.3%)
U2OS [26] = experiment: Cell cycle arrest in human U2OS cells assessed as accumulation at S phase at 5 nM after 48 hrs by FACS analysis (reference value: 37.3%)
U2OS [27] = experiment: Cell cycle arrest in human U2OS cells assessed as accumulation at sub-G1 phase at 50 nM after 48 hrs by FACS analysis relative to control
[28] = read-out: LC50 (the source's name)

Which results are given for `CC[C@H](C)[C@H]1C(=O)N2CCC[C@H]2C(=O)O[C@H](C(C)(C)C)C[C@@H](C)C[C@H](O)[C@H](C)C2=N[C@@H](/C=C(\C)C(=O)N[C@@H](Cc3ccc(OC)cc3)C(=O)N(C)[C@@H](C)C(=O)N1C)CS2` [APRATOXIN A]?
GI50 (HL-60(TB)): 0.851 nM; GI50 (K562): 14.8 nM; GI50 (SR): 1.5 nM; CC50 (SR; [28]): 27.4 nM; GI50 (NCI-H226): 1.31 nM; GI50 (NCI-H460): 2.77 nM; GI50 (NCI-H522): 6.03 nM; GI50 (COLO 205): 2.71 nM; GI50 (HCC 2998): 3.65 nM; GI50 (SF-295): 1.26 nM; CC50 (SF-295; [28]): 70.3 nM; GI50 (LOX IMVI): 2.3 nM; CC50 (LOX IMVI; [28]): 23.2 nM; GI50 (SK-MEL-2): > 100 nM; GI50 (UACC-257): 7.15 nM; GI50 (OVCAR-3): 16.9 nM; GI50 (SK-OV-3): 5.27 nM; GI50 (786-0): 4.52 nM; GI50 (ACHN): 2.69 nM; GI50 (CAKI-1): 4.05 nM; GI50 (UO-31): 2.95 nM; GI50 (PC-3): 4.96 nM; GI50 (DU-145): 10.3 nM; GI50 (MCF7): 6.57 nM; GI50 (MDA-MB-231): 1.46 nM; GI50 (MDA-MB-435): 3.35 nM; fold change (FC) (HT-29 [1]): 12.65; fold change (FC) (HT-29 [2]): <=2; fold change (FC) (HT-29 [3]): 2.49; fold change (FC) (HT-29 [4]): 6.82; fold change (FC) (HT-29 [5]): <=2; fold change (FC) (HT-29 [6]): 2.21; fold change (FC) (HT-29 [7]): 2.68; fold change (FC) (HT-29 [8]): <=2; fold change (FC) (HT-29 [9]): <=2; fold change (FC) (HT-29 [10]): <=2; fold change (FC) (HT-29 [11]): <=2; fold change (FC) (HT-29 [12]): <=2; fold change (FC) (HT-29 [13]): <=2; fold change (FC) (HT-29 [14]): <=2; fold change (FC) (HT-29 [15]): <=2; fold change (FC) (HT-29 [16]): <=2; fold change (FC) (HT-29 [17]): <=2; fold change (FC) (HT-29 [18]): <=2; fold change (FC) (HT-29 [19]): -2.35; fold change (FC) (HT-29 [20]): <=2; fold change (FC) (HT-29 [21]): <=2; fold change (FC) (HT-29 [22]): <=2; fold change (FC) (HT-29 [23]): 5.19; inhibition at 0.05 µM (U2OS [24]): 68.3%; inhibition at 0.005 µM (U2OS [25]): 28.2%; inhibition at 0.005 µM (U2OS [26]): 5.5%; inhibition at 0.05 µM (U2OS [27]): 42.7%

Reference: ChEMBL document CHEMBL1240307, “A functional genomics approach to the mode of action of apratoxin A” (Nat Chem Biol, 2006)
